From patent publication US11708367B2, “Compounds for the treatment of kinase-dependent disorders” (Exelixis, Inc., priority 2018, dated 2023)

Key:
Met = Met (Homo sapiens (Human), UniProt P08581); assay: Met autophosphorylation ELISA in PC-3 cells; format: cell-based; details: cellular, HGF-stimulated, phospho-Met ELISA, read-out: c-Met IC50
In short: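 Serum-starved PC-3 cells treated 1 h with compound (8-point series, 0.3% DMSO), then stimulated 10 min with 100 ng/mL HGF. Phospho-Met (panTyr) quantified in lysates by sandwich ELISA; IC50 from 4-parameter logistic fit against DMSO and reference-inhibitor controls.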

Human Axl = Human Axl (Homo sapiens (Human), UniProt P30530, Q764R); assay: Human AXL kinase assay (33P radiometric, KinaseProfiler); format: biochemical; details: 10 μM ATP
Chain of Human Axl (P30530 473-894 Q764R): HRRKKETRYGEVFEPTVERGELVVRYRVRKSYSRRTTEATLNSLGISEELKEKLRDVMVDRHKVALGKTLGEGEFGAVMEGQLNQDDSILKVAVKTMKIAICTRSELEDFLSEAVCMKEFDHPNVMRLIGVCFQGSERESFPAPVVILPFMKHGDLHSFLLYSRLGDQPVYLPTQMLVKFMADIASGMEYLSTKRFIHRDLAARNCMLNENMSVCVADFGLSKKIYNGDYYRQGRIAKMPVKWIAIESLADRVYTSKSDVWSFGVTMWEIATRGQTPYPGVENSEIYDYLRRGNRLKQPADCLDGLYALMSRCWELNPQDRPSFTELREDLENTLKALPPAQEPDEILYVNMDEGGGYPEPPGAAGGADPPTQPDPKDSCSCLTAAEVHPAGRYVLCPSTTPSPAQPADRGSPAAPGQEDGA
Procedure: (§1) Kinase activity and compound inhibition were investigated using the ^33P-Phosphoryl transfer radiometric kinase assay, performed using the KinaseProfiler™ service of Eurofins Pharma Discovery Services UK Limited. Dose-response experiments were performed using nine compound concentrations in a 96-well microtiter plate. For each assay, all compounds were prepared to a 50× final assay concentration (50 μM) in 100% DMSO, then diluted in a half-log series, with the final top concentration at 1 μM. This working stock of the compound was added to the assay well as the first component in the reaction, followed by the remaining components as detailed in the following assay protocols below. The positive control wells (100% kinase activity) contain all components of the reaction including 2% DMSO (control for solvent effects), except the compound of interest. Blank wells contain all components of the reaction, with the reference inhibitor, staurosporine. This reference compound was used to abolish kinase activity and generated the 0% kinase activity base-line. IC50 values were calculated by nonlinear regression analysis using the sigmoidal dose-response (variable slope) curve fit on XLFit version 5.3 (ID Business Solutions).
Human Axl (residues H473-A894 with Q764R, 161 nM) was incubated with 8 mM MOPS pH 7.0, 0.2 mM EDTA, 250 μM KKSRGDYMTMQIG (SEQ ID NO. 43), 10 mM magnesium acetate and 10 μM [γ-33P-ATP]. The reaction was initiated by the addition of the Mg/ATP mix. After incubation for 40 minutes at room temperature, the reaction was stopped by the addition of phosphoric acid to a concentration of 0.5%. A reaction aliquot of 10 μL was then spotted onto a P30 filtermat and washed four times for 4 minutes in 0.425% phosphoric acid and once in methanol prior to drying and scintillation counting. Incorporated ^33P was measured using the Wallac Microbeta scintillation counter (Perkin Elmer).

AXL = AXL (Homo sapiens (Human), UniProt P30530); assay: AXL autophosphorylation ELISA in A-172 cells; format: cell-based; details: cellular, Gas6-stimulated, phospho-AXL ELISA
Chain of AXL (P30530 26-894): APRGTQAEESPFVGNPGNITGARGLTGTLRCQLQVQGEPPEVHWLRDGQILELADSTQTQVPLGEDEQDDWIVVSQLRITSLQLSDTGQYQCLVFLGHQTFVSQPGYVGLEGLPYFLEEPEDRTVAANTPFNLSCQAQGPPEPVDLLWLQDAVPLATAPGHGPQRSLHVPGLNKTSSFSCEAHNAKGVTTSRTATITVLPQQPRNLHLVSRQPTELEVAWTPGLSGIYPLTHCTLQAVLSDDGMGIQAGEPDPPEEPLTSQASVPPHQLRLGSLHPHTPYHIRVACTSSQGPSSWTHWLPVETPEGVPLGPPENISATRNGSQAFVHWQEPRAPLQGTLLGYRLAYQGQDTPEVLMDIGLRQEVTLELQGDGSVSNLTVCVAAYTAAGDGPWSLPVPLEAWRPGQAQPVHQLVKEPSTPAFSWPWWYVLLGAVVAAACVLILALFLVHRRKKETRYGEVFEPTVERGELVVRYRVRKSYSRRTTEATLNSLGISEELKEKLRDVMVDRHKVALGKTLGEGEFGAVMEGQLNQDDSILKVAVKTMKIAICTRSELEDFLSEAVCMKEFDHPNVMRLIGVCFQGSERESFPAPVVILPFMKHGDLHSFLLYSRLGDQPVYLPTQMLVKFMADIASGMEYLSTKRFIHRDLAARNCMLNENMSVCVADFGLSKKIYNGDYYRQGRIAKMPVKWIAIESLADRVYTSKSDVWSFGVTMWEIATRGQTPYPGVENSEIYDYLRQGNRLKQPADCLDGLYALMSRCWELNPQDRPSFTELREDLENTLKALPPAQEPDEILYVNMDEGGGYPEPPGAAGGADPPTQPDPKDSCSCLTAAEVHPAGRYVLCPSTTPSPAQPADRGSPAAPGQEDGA
In short: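 A-172 glioblastoma cells, serum-starved 24 h, got 8-point compound dilutions (0.3% DMSO) for 1 h, then 1 μg/mL human Gas6 for 15 min. Phospho-AXL in lysates was quantified by ELISA against a standard, normalized between DMSO and reference-inhibitor controls; IC50 by 4-parameter logistic fit.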

Mer = Mer (Homo sapiens (Human), UniProt Q12866); assay: Human Mer kinase assay (33P radiometric, KinaseProfiler); format: biochemical; details: 10 μM ATP
Chain of Mer (Q12866 557-882): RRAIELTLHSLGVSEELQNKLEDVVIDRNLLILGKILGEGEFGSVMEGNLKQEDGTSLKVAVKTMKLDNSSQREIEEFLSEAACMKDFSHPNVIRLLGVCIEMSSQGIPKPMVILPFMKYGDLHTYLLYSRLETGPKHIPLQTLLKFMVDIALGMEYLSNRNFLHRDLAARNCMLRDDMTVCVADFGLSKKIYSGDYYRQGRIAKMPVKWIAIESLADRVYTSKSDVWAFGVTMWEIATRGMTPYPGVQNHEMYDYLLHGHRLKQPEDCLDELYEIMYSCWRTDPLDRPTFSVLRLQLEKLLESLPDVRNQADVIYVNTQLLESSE
Procedure: as §1
Human Mer (residues R557-E882 with H628Q and R794A, 0.7 nM) was incubated with 8 mM MOPS pH 7.0, 0.2 mM EDTA, 30 mM NaCl, 250 μM GGMEDIYFEFMGGKKK (SEQ ID NO. 44), 10 mM magnesium acetate, and 10 μM [γ-33P-ATP]. The reaction was initiated by the addition of the Mg/ATP mix. After incubation for 40 minutes at room temperature, the reaction was stopped by the addition of phosphoric acid to a concentration of 0.5%. A reaction aliquot of 10 μL was then spotted onto a P30 filtermat and washed four times for 4 minutes in 0.425% phosphoric acid and once in methanol prior to drying and scintillation counting. Incorporated 33P was measured using the Wallac Microbeta scintillation counter (Perkin Elmer).

Chain of Met (P08581 25-1390): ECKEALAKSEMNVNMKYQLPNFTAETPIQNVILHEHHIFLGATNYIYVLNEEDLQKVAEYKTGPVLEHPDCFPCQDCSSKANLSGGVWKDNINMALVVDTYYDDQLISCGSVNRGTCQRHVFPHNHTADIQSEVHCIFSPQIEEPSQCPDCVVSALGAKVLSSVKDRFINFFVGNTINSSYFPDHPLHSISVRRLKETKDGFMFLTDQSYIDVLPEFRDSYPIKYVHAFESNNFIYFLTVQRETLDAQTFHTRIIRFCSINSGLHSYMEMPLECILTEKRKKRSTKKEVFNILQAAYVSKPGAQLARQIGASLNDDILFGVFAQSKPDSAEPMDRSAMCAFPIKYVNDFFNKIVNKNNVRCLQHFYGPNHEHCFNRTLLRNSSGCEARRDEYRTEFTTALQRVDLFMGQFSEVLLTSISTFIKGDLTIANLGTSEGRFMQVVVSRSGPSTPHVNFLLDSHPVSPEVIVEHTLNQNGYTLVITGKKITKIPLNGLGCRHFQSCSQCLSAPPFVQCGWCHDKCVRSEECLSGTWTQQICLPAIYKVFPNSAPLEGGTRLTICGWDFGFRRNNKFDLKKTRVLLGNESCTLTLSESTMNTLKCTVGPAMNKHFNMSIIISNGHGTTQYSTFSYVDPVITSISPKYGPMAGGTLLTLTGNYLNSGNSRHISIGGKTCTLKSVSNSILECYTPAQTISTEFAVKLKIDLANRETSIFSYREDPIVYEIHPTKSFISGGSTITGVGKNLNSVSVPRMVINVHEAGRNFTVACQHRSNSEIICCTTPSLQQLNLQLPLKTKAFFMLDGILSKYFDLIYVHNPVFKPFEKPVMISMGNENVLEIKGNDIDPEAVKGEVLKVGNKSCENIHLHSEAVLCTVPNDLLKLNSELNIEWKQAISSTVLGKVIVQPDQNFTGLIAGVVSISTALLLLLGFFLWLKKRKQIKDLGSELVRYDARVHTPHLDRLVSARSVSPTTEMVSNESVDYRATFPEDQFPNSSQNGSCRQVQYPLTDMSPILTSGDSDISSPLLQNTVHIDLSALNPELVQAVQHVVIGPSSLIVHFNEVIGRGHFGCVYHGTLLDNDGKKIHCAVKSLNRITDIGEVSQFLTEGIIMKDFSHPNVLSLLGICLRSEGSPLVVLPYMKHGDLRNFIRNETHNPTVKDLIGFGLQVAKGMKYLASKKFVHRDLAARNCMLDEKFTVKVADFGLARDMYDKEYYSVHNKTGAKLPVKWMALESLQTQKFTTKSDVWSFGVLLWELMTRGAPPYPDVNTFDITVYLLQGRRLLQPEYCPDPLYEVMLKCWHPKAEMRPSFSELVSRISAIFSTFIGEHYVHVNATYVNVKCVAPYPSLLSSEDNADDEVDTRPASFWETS

IC50 (Met) [nM] | IC50 (Human Axl) [nM] | IC50 (AXL) [nM] | IC50 (Mer) [nM] | Compound
100 to 300 | ≤ 10 | 10 to 100 | ≤ 10 | COc1cc2ncnc(Oc3ccc(NC(=O)C4(C(=O)Nc5ccc(F)cc5)CC4)cc3)c2nc1OC [Compound 28, 1-N-[4-(6,7-dimethoxy-pyrido[3,2-d]pyrimidin-4-yl)oxyphenyl]-1-N′-(4-fluorophenyl)cyclo-propane-1,1-dicarboxamide]
100 to 300 | 10 to 100 | ≤ 10 | ≤ 10 | COc1cc2ncnc(Oc3ccc(NC(=O)C4(C(=O)Nc5ccc(F)cc5)CC4)cc3)c2cc1C(N)=O [Compound 117, 1-N-[4-(6-carbamoyl-7-methoxyquinazolin-4-yl)oxyphenyl]-1-N′-(4-fluorophenyl)cyclopropane-1,1-dicarboxamide]
100 to 300 | ≤ 10 | 10 to 100 | ≤ 10 | COc1cc2ncnc(Oc3ccc(NC(=O)C4(C(=O)Nc5ccc(F)cc5)CC4)cc3)c2cc1C(=O)NC[C@@H]1CCCN1 [Compound 122, 1-N′-(4-fluorophenyl)-1-N-[4-[7-methoxy-6-[[(2S)-pyrrolidin-2-yl]methyl-carbamoyl]quinazolin-4-yl]oxyphenyl]cyclopropane-1,1-dicarboxamide]
≤ 10 | ≤ 10 | ≤ 10 | ≤ 10 | COc1cc2nccc(Oc3ccc(NC(=O)C4(C(=O)Nc5ccc(F)cc5)CC4)cc3F)c2nc1OC [Compound 140, 1-N′-[4-[(6,7-dimethoxy-1,5-naphthyridin-4-yl)oxy]-3-fluorophenyl]-1-N-(4-fluorophenyl)cyclopropane-1,1-dicarboxamide]
10 to 100 | 10 to 100 | ≤ 10 | ≤ 10 | COc1nc2c(Oc3ccc(NC(=O)C4(C(=O)Nc5ccc(F)cc5)CC4)cc3)ncnc2cc1OCCCN1CCOCC1 [Compound 65, 1-N′-(4-fluorophenyl)-1-N-[4-[6-methoxy-7-(3-morpholin-4-ylpropoxy)pyrido[3,2-d]pyrimidin-4-yl]oxyphenyl]cyclopropane-1,1-dicarboxamide]
> 300 | 10 to 100 | > 300 | 10 to 100 | COc1cc2ncnc(Oc3ccc(NC(=O)C4(C(=O)Nc5ccc(F)cc5)CC4)cc3)c2cn1 [Compound 104, 1-N′-(4-fluorophenyl)-1-N-[4-(7-methoxypyrido[4,3-d]pyrimidin-4-yl)oxy-phenyl]cyclopropane-1,1-dicarboxamide]
10 to 100 | ≤ 10 | ≤ 10 | ≤ 10 | COc1nc2c(Oc3ccc(NC(=O)C4(C(=O)Nc5ccc(F)cc5)CC4)cc3F)ncnc2cc1OCCCN1CCOCC1 [Compound 67, 1-N′-[3-fluoro-4-[6-methoxy-7-(3-morpholin-4-ylpropoxy)pyrido[3,2-d]pyrimidin-4-yl]oxyphenyl]-1-N-(4-fluorophenyl)cyclo-propane-1,1-dicarboxamide]
10 to 100 | ≤ 10 | ≤ 10 | ≤ 10 | COc1cc2ncnc(Oc3ccc(NC(=O)C4(C(=O)Nc5ccc(F)cc5)CC4)cc3F)c2nc1OC [Compound 30, 1-N′-[4-(6,7-dimethoxypyrido[3,2-d]pyrimidin-4-yl)oxy-3-fluorophenyl]-1-N-(4-fluorophenyl)cyclopropane-1,1-dicarboxamide]
> 300 | 10 to 100 | > 300 | 10 to 100 | COc1cc2ncnc(Oc3ccc(NC(=O)C4(C(=O)Nc5ccc(F)cc5)CC4)cc3)c2cc1C(=O)NC[C@@H]1CCCN1C(=O)OC(C)(C)C [Compound 120, tert-butyl (2S)-2-[[[4-[4-[[1-[(4-fluoro-phenyl)carbamoyl]cyclo-propane-carbonyl]amino]phenoxy]-7-methoxyquinazoline-6-carbonyl]amino]methyl]pyr-rolidine-1-carboxylate]
> 300 | 100 to 1000 | > 300 | 10 to 100 | COc1cc2c(Oc3ccc(NC(=O)C4(C(=O)Nc5ccc(F)cc5)CC4)cc3)ncnc2cn1 [Compound 91, 1-N′-(4-fluorophenyl)-1-N-[4-(6-methoxypyrido[3,4-d]pyrimidin-4-yl)oxyphenyl]cyclopropane-1,1-dicarboxamide]
> 300 | 10 to 100 | 100 to 300 | 10 to 100 | COc1cc2ncnc(Oc3ccc(NC(=O)C4(C(=O)Nc5ccc(F)cc5)CC4)cc3)c2cc1C(=O)NC[C@H]1CCCN1C(=O)OC(C)(C)C [Compound 119, tert-butyl (2R)-2-[[[4-[4-[[1-[(4-fluoro-phenyl)carbamoyl]cyclo-propane-carbonyl]amino]phenoxy]-7-methoxyquinazoline-6-carbonyl]amino]methyl]pyr-rolidine-1-carboxylate]
100 to 300 | 10 to 100 | > 300 | 10 to 100 | COc1cc2ncnc(Oc3ccc(NC(=O)C4(C(=O)Nc5ccc(F)cc5)CC4)cc3)c2cc1C(=O)NC1COC1 [Compound 115, 1-N′-(4-fluorophenyl)-1-N-[4-[7-methoxy-6-(oxetan-3-ylcarbamoyl)quinazolin-4-yl]oxyphenyl]cyclopropane-1,1-dicarboxamide]
10 to 100 | ≤ 10 | ≤ 10 | ≤ 10 | COc1nc2c(Oc3ccc(NC(=O)C4(C(=O)Nc5ccc(F)cc5)CC4)cc3Cl)ncnc2cc1OCCCN1CCOCC1 [Compound 66, 1-N′-[3-chloro-4-[6-methoxy-7-(3-morpholin-4-ylpropoxy)pyrido[3,2-d]pyrimidin-4-yl]oxyphenyl]-1-N-(4-fluorophenyl)cyclo-propane-1,1-dicarboxamide]
10 to 100 | ≤ 10 | ≤ 10 | ≤ 10 | COc1cc2nccc(Oc3ccc(NC(=O)C4(C(=O)Nc5ccc(F)cc5)CC4)cc3)c2nc1OC [Compound 139, 1-N-[4-[(6,7-dimethoxy-1,5-naphthyridin-4-yl)oxy]phenyl]-1-N′-(4-fluorophenyl)cyclo-propane-1,1-dicarboxamide]
100 to 300 | ≤ 10 | 10 to 100 | ≤ 10 | COc1cc2ncnc(Oc3ccc(NC(=O)C4(C(=O)Nc5ccc(F)cc5)CC4)cc3)c2cc1C(=O)NC[C@H]1CCCN1 [Compound 121, 1-N′-(4-fluorophenyl)-1-N-[4-[7-methoxy-6-[[(2R)-pyrrolidin-2-yl]methyl-carbamoyl]quinazolin-4-yl]oxyphenyl]cyclopropane-1,1-dicarboxamide]
100 to 300 | 10 to 100 | 10 to 100 | ≤ 10 | COc1cc2ncnc(Oc3ccc(NC(=O)C4(C(=O)Nc5ccc(F)cc5)CC4)cc3)c2cc1C(=O)NCCN1CCCC1 [Compound 118, 1-N′-(4-fluorophenyl)-1-N-[4-[7-methoxy-6-(2-pyrrolidin-1-ylethyl-carbamoyl)quinazolin-4-yl]oxyphenyl]cyclopropane-1,1-dicarboxamide]
100 to 300 | 10 to 100 | 100 to 300 | 10 to 100 | COc1cc2ncnc(Oc3ccc(NC(=O)C4(C(=O)Nc5ccc(F)cc5)CC4)cc3)c2cc1C(=O)NC1CC1 [Compound 116, 1-N-[4-[6-(cyclopropylcarbamoyl)-7-methoxyquinazolin-4-yl]oxyphenyl]-1-N′-(4-fluorophenyl)cyclopropane-1,1-dicarboxamide]
≤ 10 | 10 to 100 | 10 to 100 | ≤ 10 | COc1cc2nccc(Oc3ccc(NC(=O)C4(C(=O)Nc5ccc(F)cc5)CC4)cc3Cl)c2nc1OC [Compound 141, 1-N′-[3-chloro-4-[(6,7-dimethoxy-1,5-naphthyridin-4-yl)oxy]phenyl]-1-N-(4-fluorophenyl)cyclo-propane-1,1-dicarboxamide]
